According to US9526737B2, “Oxysterols for activation of hedgehog signaling, osteoinduction, antiadipogenesis, and Wnt signaling” (THE REGENTS OF THE UNIVERSITY OF CALIFORNIA, priority 2007, dated 2016):
Like-named read-outs stand apart in the source and are kept apart here.

What was measured:
[1] = system: M2-10B4 marrow stromal cells; test: Alkaline phosphatase (ALP) activity assay; conditions: for fold induction at 2.5 µM / fold induction at 5 µM / fold induction at 1.25 µM: M210B4, 72 h; for Alkaline phosphatase activity versus control vehicle (significance): 1.25 μM, 3 days, p>0.05
Experimental: The protocol is a modification of alkaline phosphatase assay kit from Sigma. Cells are cultured in 24-well tissue culture plates. After treatments with test agents, cells are rinsed twice with PBS and scraped into 200 ml of lysis buffer (0.2% NP-40 in 1 mM MgCl2) and sonicated for 10 seconds. Next, 1 ml of reaction mixture is added to each well. Reaction mixture is 221 alkaline buffer (Sigma): stock substrate solution (1:1). Stock substrate solution is prepared by dissolving 40 mg of Sigma 104 phosphatase substrate in 10 ml of ddH2O. After addition of reaction mixture to lysed cells, incubation is performed for 30 minutes at 37 C. […] The reaction is stopped by the addition of 12 ml of 1N NaOH to each well, and absorbance is determined at 405 nm. Alkaline phosphatase activity is calculated using p-nitrophenol as a standard, according to Sigma kit's instructions. Results are normalized to total protein in each well determined using the Bio-Rad protein assay solution (Bio-Rad Laboratories).
M2-10B4 marrow stromal cells were treated with oxysterols at various doses for 3 days after which they were collected and analyzed by calorimetric assay for alkaline phosphatase activity (a marker of osteoblastic differentiation) (Table 1); the alkaline phosphatase assay described above was used.
M2-10B4 marrow stromal cells were treated with oxysterols at various doses for 3 days after which they were collected and analyzed by colorimetric assay for alkaline phosphatase activity (a marker of osteoblastic differentiation) (Table 2); the alkaline phosphatase assay described above was used.
M2-10B4 bone marrow stromal cells were treated in culture with control vehicle (C) or various oxysterol (Oxy) molecules as indicated at either 1.25 (1) or 2.5 (2) μM concentrations. After 3 days of treatment, alkaline phosphatase activity as a measure of early osteogenic differentiation of cells was measured in whole cell lysates (See FIG. 9 and Table 3); the alkaline phosphatase assay described above was used.

marrow stromal cells = test: Osteoinductive properties (osteoblast differentiation markers: ALP activity, osteocalcin mRNA, mineralization); format: cell-based; conditions: induction of osteoblast differentiation markers
Text: Oxysterols discussed in this application include those designated as Oxy22, Oxy26, Oxy27, Oxy28, Oxy39, Oxy40, Oxy41, Oxy42, Oxy48, Oxy49, Oxy20, Oxy34, Oxy36, Oxy38, Oxy50, Oxy51, Oxy52, and Oxy53. At least the following oxysterols have been identified as osteoinductive: Oxy22, Oxy26, Oxy27, Oxy28, Oxy39, Oxy40, Oxy41, Oxy42, Oxy48, Oxy49, Oxy50, Oxy51, Oxy52, and Oxy53. The osteoinductive properties of these oxysterols is shown by their ability to induce the expression of various osteoblast differentiation markers, including alkaline phosphatase activity, osteocalcin mRNA expression, and mineralization. These oxysterols are activators of the hedgehog signaling pathway.

[2] = system: Naked Cuticle 2 (Nkd2) mRNA expression; format: cell-based; conditions: M2 cells pre-treated 2 h with inhibitor, then 5 μM SS for 48 h
Experimental: (§1) Total RNA was extracted with the RNA isolation kit from Stratagene (La Jolla, Calif.) according to the manufacturer's instructions. RNA was DNase-treated using the DNA-free kit from Ambion, Inc. (Austin, Tex.). 3 μg of RNA was reverse-transcribed using reverse transcriptase from Stratagene (La Jolla, Calif.) to make single stranded cDNA. The cDNAs were mixed with Qi SYBR Green Supermix from Bio-Rad Laboratories (Hercules, Calif.) for quantitative RT-PCR using a Bio-Rad I-cycler IQ quantitative thermocycler. All PCR samples were prepared in triplicate or quadruplicate. Each sample was added to duplicate wells of a 96-well plate. After 40 cycles of PCR, melt curves were analyzed in order to ensure primer specificity, and the identity of all PCR products were verified by sequencing and comparing with the complete mRNA sequence obtained from PubMed's GenBank. Fold changes in gene expression were calculated using the ΔΔCt method (14). All primers were designed using the Beacon Designer software from Bio-Rad Laboratories (Hercules, Calif.). Primers used are as follows: OCN (5′-[…]-3′ (SEQ ID NO: 1) and 5′-[…]-3′ (SEQ ID NO: 2)), Axin2(5′[…]-3′ (SEQ ID NO: 3) and 5′-[…]-3′ (SEQ ID NO: 4)), Cyclin D1(5′-[…]-3′ (SEQ ID NO: 5) and 5′-[…]-3′ (SEQ ID NO: 6)), NKD2 (5′-[…]-3′ (SEQ ID NO: 7) and 5′[…]-3′ (SEQ ID NO: 8)), WIF-1 (5′-[…]-3′ (SEQ ID NO: 9) and 5′-[…]-3′ (SEQ ID NO: 10)), and GAPDH (5′-[…]-3′ (SEQ ID NO: 11) and 5′-[…]-3′ (SEQ ID NO: 12)).
(§2) M2 cells were treated with 5 μM SS, 200 ng/ml Shh, or control vehicle for 48 h. RNA was isolated and analyzed by Q-RT-PCR for Nkd2 (E) and WIF-1 (F) expression (See FIGS. 4E and 4F).
(§3) M2 cells were pre-treated for 2 h with vehicle or cyclopamine (Cyc) at the concentrations indicated. Next, cells were treated with 5 μM SS or control vehicle for 48 h. RNA was isolated and analyzed for Nkd2 (A) and WIF-1 (B) expression by Q-RT-PCR (See FIGS. 5A and 5B).
(§4) M2 cells were pre-treated for 2 h with Dkk-1 or vehicle. Next, cells were treated with 5 μM SS or control vehicle for 48 h. RNA was isolated and analyzed for Nkd2 (C), Wif-1 (D), and Ptch (E) expression (See FIGS. 5C-5E).
(§5) M2 cells were pre-treated for 2 h with 5 μM LY, 2.5 μM Wm, or vehicle followed by treatment with 5 μM SS or control vehicle for 48 h. RNA was isolated and analyzed for Nkd2 (FIG. 7E) and Wif-1 (FIG. 7F) expression.

[3] = system: Wnt Inhibitory factor-1 (Wif-1) mRNA expression; format: cell-based; conditions: M2 cells pre-treated 2 h with inhibitor, then 5 μM SS for 48 h
Experimental: as §1, §2, §3, §4, §5

[4] = system: Patched (Ptch) mRNA expression; test: Q-RT-PCR for Patched (Ptch) mRNA expression; format: cell-based; conditions: M2 cells pre-treated 2 h with inhibitor, then 5 μM SS for 48 h
Experimental: Total RNA was extracted with the RNA isolation kit from Stratagene (La Jolla, Calif.) according to the manufacturer's instructions. RNA was DNase-treated using the DNA-free kit from Ambion, Inc. (Austin, Tex.). 3 μg of RNA was reverse-transcribed using reverse transcriptase from Stratagene (La Jolla, Calif.) to make single stranded cDNA. The cDNAs were mixed with Qi SYBR Green Supermix from Bio-Rad Laboratories (Hercules, Calif.) for quantitative RT-PCR using a Bio-Rad I-cycler IQ quantitative thermocycler. All PCR samples were prepared in triplicate or quadruplicate. Each sample was added to duplicate wells of a 96-well plate. After 40 cycles of PCR, melt curves were analyzed in order to ensure primer specificity, and the identity of all PCR products were verified by sequencing and comparing with the complete mRNA sequence obtained from PubMed's GenBank. Fold changes in gene expression were calculated using the ΔΔCt method (14). All primers were designed using the Beacon Designer software from Bio-Rad Laboratories (Hercules, Calif.). […]
M2 cells were pre-treated for 2 h with Dkk-1 or vehicle. […] RNA was isolated and analyzed for Nkd2 (C), Wif-1 (D), and Ptch (E) expression (See FIGS. 5C-5E).

[5] = read-out: Fold Induction in alkaline phosphatase activity compared to control untreated cells
[6] = read-out: Fold Induction in alkaline phosphatase activity over control untreated cells

Row | Structure (SMILES) | fold induction at 2.5 µM [1, 5] | fold induction at 5 µM [1, 5] | Osteoinductive property (marrow stromal cells) | further results
1 | CC(C)C/C=C/[C@](C)(O)C1CC[C@H]2[C@@H]3CC=C4C[C@@H](O)CC[C@]4(C)[C@H]3CC[C@]12C (stereo partly drawn) [Oxy20, (3S,8S,9S,10R,13S,14S)-17-((S,E)-2-hydroxy-6-methylhept-3-en-2-yl)-10,13-dimethyl-2,3,4,7,8,9,10,11,12,13,14,15,16,17-tetradecahydro-1H-cyclopenta[a]phenanthren-3-ol] | 36 | 68 | – | –
2 | C[C@]12CCC3C(CC=C4C[C@@H](O)CC[C@@]43C)C1CCC2[C@@](C)(O)CCCc1ccccc1 (stereo partly shown) [Oxy22] | 4 | 9 | osteoinductive | –
3 | C[C@]12CC[C@H]3[C@@H](CC=C4C[C@@H](O)CC[C@@]43C)[C@@H]1CC[C@@H]2[C@@](C)(O)CC#Cc1cccs1 [Oxy26, (3S,8S,9S,10R,13S,14S,17S)-17-((S)-2-Hydroxy-5-(thiophen-2-yl)pent-4-yn-2-yl)-10,13-dimethyl-2,3,4,7,8,9,10,11,12,13,14,15,16,17-tetradecahydro-1H-cyclopenta-[a]phenanthren-3-ol] | 27 | 76 | osteoinductive | –
4 | C[C@]12CC[C@H]3[C@@H](CC=C4C[C@@H](O)CC[C@@]43C)[C@@H]1CC[C@@H]2[C@@](C)(O)CCc1ccccc1 [Oxy27, (3S,8S,9S,10R,13S,14S,17S)-17-((S)-2-Hydroxy-4-phenylbutan-2-yl)-10,13-dimethyl-2,3,4,7,8,9,10,11,12,13,14,15,16,17-tetradecahydro-1H-cyclopenta[a]phenanthren-3-ol] | 17 | 42 | osteoinductive | –
5 | CC(=O)O[C@H]1CC2C3CCC([C@@](C)(O)CCCC(C)C)[C@@]3(C)CCC2[C@@]2(C)CC[C@H](O)C[C@H]12 (stereo partly shown) [Oxy28] | 59 | 75 | osteoinductive | –
6 | C[C@]12CC[C@H]3[C@@H](CC=C4C[C@@H](O)CC[C@@]43C)[C@@H]1CC[C@@H]2[C@@](C)(O)CCc1ccccc1F [Oxy39, (3S,8S,9S,10R,13S,14S,17S)-17-((S)-4-(2-Fluorophenyl)-2-hydroxybutan-2-yl)-10,13-dimethyl-2,3,4,7,8,9,10,11,12,13,14,15,16,17-tetradecahydro-1H-cyclopenta[a]phen-anthren-3-ol] | 52 | 148 | osteoinductive | –
7 | CC(CO)CCC[C@](C)(O)[C@H]1CC[C@H]2[C@@H]3CC=C4C[C@@H](O)CC[C@]4(C)[C@H]3CC[C@@]21C (stereo partly shown) [Oxy40] | 28 | 105 | osteoinductive | –
8 | C=C(C)CCC[C@](C)(O)[C@H]1CC[C@H]2[C@@H]3C[C@H](OC(C)=O)[C@H]4C[C@@H](O)CC[C@]4(C)[C@H]3CC[C@@]21C [Oxy41, (3S,5S,6S,8R,9S,10R,13S,14S,17S)-3-Hydroxy-17-((S)-2-hydroxy-6-methylhept-6-en-2-yl)-10,13-dimethylhexadecahydro-1H-cyclopenta[a]phenanthren-6-yl acetate] | 46 | 175 | osteoinductive | –
9 | C[C@]12CC[C@H]3[C@@H](CC=C4C[C@@H](O)CC[C@@]43C)[C@@H]1CC[C@@H]2[C@@](C)(O)CCCc1cccs1 [Oxy42, (3S,8S,9S,10R,13S,14S,17S)-17-((S)-2-Hydroxy-5-(thiophen-2-yl)pentan-2-yl)-10,13-dimethyl-2,3,4,7,8,9,10,11,12,13,14,15,16,17-tetradecahydro-1H-cyclopenta[a]phen-anthren-3-ol] | 166 | 290 | osteoinductive | –
10 | CC(CO)CCC[C@](C)(O)[C@H]1CC[C@H]2[C@@H]3C[C@H](O)[C@H]4C[C@@H](O)CC[C@]4(C)[C@H]3CC[C@@]21C (stereo partly drawn) [Oxy48, (3S,5S,6S,8R,9S,10R,13S,14S,17S)-17-((2S)-2,7-Dihydroxy-6-methylheptan-2-yl)-10,13-dimethylliexadecahydro-1H-cyclopenta[a]phenanthrene-3,6-diol] | 11 | 43 | osteoinductive | –
11 | C[C@]12CC[C@H](O)C[C@@H]1[C@@H](O)C[C@@H]1[C@@H]2CC[C@@]2(C)[C@H]1CC[C@@H]2[C@@](C)(O)CCCc1cccs1 [Oxy50, (3S,5S,6S,8R,9S,10R,13S,14S,17S)-17-((S)-2-hydroxy-5-(thiophen-2-yl)pentan-2-yl)-10,13-dimethylhexadecahydro-1H-cyclopenta[a]phenanthrene-3,6-diol] | – | – | osteoinductive | fold induction at 1.25 µM [1, 6]: 25; fold induction at 2.5 µM [1, 6]: 65
12 | C[C@]12CC[C@H](O)C[C@@H]1[C@@H](O)C[C@@H]1[C@@H]2CC[C@@]2(C)[C@H]1CC[C@@H]2[C@@](C)(O)CC#Cc1cccs1 [Oxy51, (3S,5S,6S,8R,9S,10R,13S,14S,17S)-17-((S)-2-hydroxy-5-(thiophen-2-yl)pent-4-yn-2-yl)-10,13-dimethylhexadecahydro-1H-cyclopenta[a]phenanthrene-3,6-diol] | – | – | osteoinductive | Alkaline phosphatase activity versus control vehicle (significance) [1]: not significant; fold induction at 1.25 µM [1, 6]: 3; fold induction at 2.5 µM [1, 6]: 20
13 | C[C@]12CC[C@H](O)C[C@@H]1[C@@H](O)C[C@@H]1[C@@H]2CC[C@@]2(C)[C@H]1CC[C@@H]2[C@@](C)(O)CCc1ccccc1 [Oxy52, (3S,5S,6S,8R,9S,10R,13S,14S,17S)-17-((S)-2-hydroxy-4-phenylbutan-2-yl)-10,13-dimethylhexadecahydro-1H-cyclopenta[a]phenanthrene-3,6-diol] | – | – | osteoinductive | fold induction at 1.25 µM [1, 6]: 5; fold induction at 2.5 µM [1, 6]: 22
14 | C[C@]12CC[C@H](O)C[C@@H]1[C@@H](O)C[C@@H]1[C@@H]2CC[C@@]2(C)[C@H]1CC[C@@H]2[C@@](C)(O)CCCc1ccccc1 [Oxy53, (3S,5S,6S,8R,9S,10R,13S,14S,17S)-17-((S)-2-hydroxy-5-phenylpentan-2-yl)-10,13-dimethylhexadecahydro-1H-cyclopenta[a]phenanthrene-3,6-diol] | – | – | osteoinductive | Alkaline phosphatase activity versus control vehicle (significance) [1]: not significant; fold induction at 1.25 µM [1, 6]: 2; fold induction at 2.5 µM [1, 6]: 11
15 | CC1=C2C[C@H]3[C@@H](CC=C4C[C@@H](O)CC[C@@]43C)[C@@H]2CC[C@]12O[C@@H]1C[C@H](C)CN[C@H]1[C@H]2C [cyclopamine, reference compound] | – | – | – | Inhibition of oxysterol-induced Nkd2 expression [2]: did not inhibit; Inhibition of oxysterol-induced Wif-1 expression [3]: completely blocked; Inhibition of oxysterol-induced Patched (Ptch) mRNA expression [4]: completely abolished
